Test results taken from US20250136722A1, “CYTOTOXICITY TARGETING CHIMERAS” (GLAXOSMITHKLINE INTELLECTUAL PROPERTY DEVELOPMENT LIMITED, priority 2021, published 2025).
Where “and” joins values, the source holds several entries; their conditions need not be identical. Equal values may be shown once.

Tests used:
[1] = biological target: Anti-cotinine antibody (SEQ ID NO: 11 / SEQ ID NO: 12, rabbit variable region with human IgG1 Fc domain); assay: Binding of anti-cotinine antibody to ARM compounds by SPR, Biacore T200, 37° C. (Example 202); conditions: pH 7.4, rabbit variable region/human IgG1 Fc antibody captured on protein A
In short: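 Antibody captured on protein A chip. Compounds injected (3-fold, 5-point, top 200 nM) at 100 μL/min with 200 s association and 2000 s dissociation, at 37° C. in HEPES pH 7.4 buffer with 1% DMSO. Double-referenced data fit to 1:1 kinetics. Kd = koff/kon, reported as pKd, averaged over runs.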

[2] = biological target: T1, CHOK1 cells engineered to overexpress human CCR2 (Homo sapiens, UniProt P41597); assay: Antibody dependent cellular cytotoxicity (ADCC) reporter assay (Example 199); format: cell-based; conditions: with anti-cotinine antibody SEQ ID NO: 11/12, CHOK1-human CCR2 target cells, Jurkat FcγRIIIa NFAT-luciferase reporter cells, 12-18 hours; for EC50: read-out: ADCC Reporter Assay pEC50 (converted)
T1 construct: expressed in transfected cells; host or cells: CHOK1 cells
In short: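 CHOK1-hCCR2 target cells are co-incubated for 12–18 h with Jurkat FcγRIIIa/NFAT-luciferase reporter cells, ARM compound (1 pM–10 μM) and anti-cotinine antibody with a DE-mutant human IgG1 Fc (0.01–200 μg/mL). Luminescence is expressed as signal:background against no-compound wells; EC50 comes from nonlinear fit and is reported as pEC50, averaged across runs.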

[3] = biological target: human alpha1 nicotinic acetylcholine (nACh) receptor (Homo sapiens, UniProt P02708+Q07001); assay: Nicotinic acetylcholine receptor antagonism assay, IONFlux automated patch clamp (Example 203); format: cell-based; conditions: for Emax at 100 µM: maximum percentage antagonism at maximum concentration tested 100 μM; for Emax at 100 µM / Emax at 10 µM: read-out: Maximum Response (%); for IC50: nAChR antagonism, ACh stimulated, patch clamp; for Emax at 10 µM: maximum percentage antagonism at maximum concentration tested 10 μM
Method: Cells expressing human alpha1 nicotinic acetylcholine (nACh) receptor (nAChR) were washed and dissociated using Trypsin containing buffer. Cells were then washed and seeded at a density of 3-5 million cells/mL and allowed to grow for 3 days. Then, 60-80 μL of cells were added to plates and incubated with dose response of an ARM compound of Formula (I) with a top concentration of either 10 μM or 100 μM. The receptor was then stimulated via addition of acetylcholine (ACh) and activation of the receptor was monitored via the IONFlux automated patch clamp system. IonFlux Data Analyzer software was utilized to perform leak subtraction and measure (min) peak current amplitude.
Data processing: (1) Current values recorded for vehicle only applications in individual traps/patterns were subtracted from corresponding current amplitude values for control, test article and control+test article. (2) Control response was calculated as % of the average response of the 3rd out of total 3 ACh (10 mM) applications alone. In rare situations, if the 3rd ACh response was obscured due to technical artifacts, the 2nd and/or 1 st ACh (10 mM) application was considered as control. The peak current amplitude generated in the presence of each test article concentration was then used to calculate the % inhibition as compared to control response (10 mM ACh alone). These estimates were further corrected for vehicle response and run down corrected by normalizing with time matched control responses (10 mM ACh alone). The corrected percentages were then fit with a non-linear function in GraphPad Prism 6 (or later versions) to determine the […].
Exclusion criteria: (i) any n's with poor recording quality, (ii) control current amplitude <500 pA or (iii) significant outliers, as determined by the Grubbs' test.
ARMs compounds of Formula (I) of the invention were tested for antagonism of the nAChR in the above assay in […] experimental runs and the results are shown in Table 7 below. Antagonistic activity of the compounds of Formula (I) of the invention is reported as an IC50 value (half maximal inhibitory concentration) and the maximum percentage antagonism observed at the highest concentration of compound of Formula (I) tested, as indicated in Table 7. For compounds tested in more than one experimental run, the IC50 value is reported as an average.

Sequence of human alpha1 nicotinic acetylcholine (nACh) receptor (P02708 21-457): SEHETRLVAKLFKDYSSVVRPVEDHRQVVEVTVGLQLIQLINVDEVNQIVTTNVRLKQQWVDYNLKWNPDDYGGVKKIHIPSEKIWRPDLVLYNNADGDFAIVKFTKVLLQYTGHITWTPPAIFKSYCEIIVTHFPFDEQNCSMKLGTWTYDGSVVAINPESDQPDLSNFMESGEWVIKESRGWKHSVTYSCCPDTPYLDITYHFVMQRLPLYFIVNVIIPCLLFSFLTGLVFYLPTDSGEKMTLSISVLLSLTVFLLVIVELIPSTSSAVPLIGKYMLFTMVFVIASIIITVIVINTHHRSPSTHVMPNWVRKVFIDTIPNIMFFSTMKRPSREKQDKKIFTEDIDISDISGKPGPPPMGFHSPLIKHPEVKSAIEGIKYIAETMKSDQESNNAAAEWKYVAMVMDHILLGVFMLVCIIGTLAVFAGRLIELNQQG
Sequence of human alpha1 nicotinic acetylcholine (nACh) receptor (P11230 24-501 partner): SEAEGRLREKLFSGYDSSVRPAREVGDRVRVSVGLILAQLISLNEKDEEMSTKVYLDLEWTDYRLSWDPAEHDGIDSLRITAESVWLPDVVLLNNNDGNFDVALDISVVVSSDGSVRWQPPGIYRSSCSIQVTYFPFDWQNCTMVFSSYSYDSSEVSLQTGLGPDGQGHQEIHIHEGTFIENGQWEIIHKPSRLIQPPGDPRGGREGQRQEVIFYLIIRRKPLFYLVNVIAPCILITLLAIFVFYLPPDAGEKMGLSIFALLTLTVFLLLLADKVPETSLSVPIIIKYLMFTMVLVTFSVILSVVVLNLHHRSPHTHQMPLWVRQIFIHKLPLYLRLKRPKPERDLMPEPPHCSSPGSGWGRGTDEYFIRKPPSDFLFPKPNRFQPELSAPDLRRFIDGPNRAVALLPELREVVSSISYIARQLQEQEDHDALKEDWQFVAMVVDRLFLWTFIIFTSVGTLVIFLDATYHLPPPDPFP
Sequence of human alpha1 nicotinic acetylcholine (nACh) receptor (Q07001 22-517): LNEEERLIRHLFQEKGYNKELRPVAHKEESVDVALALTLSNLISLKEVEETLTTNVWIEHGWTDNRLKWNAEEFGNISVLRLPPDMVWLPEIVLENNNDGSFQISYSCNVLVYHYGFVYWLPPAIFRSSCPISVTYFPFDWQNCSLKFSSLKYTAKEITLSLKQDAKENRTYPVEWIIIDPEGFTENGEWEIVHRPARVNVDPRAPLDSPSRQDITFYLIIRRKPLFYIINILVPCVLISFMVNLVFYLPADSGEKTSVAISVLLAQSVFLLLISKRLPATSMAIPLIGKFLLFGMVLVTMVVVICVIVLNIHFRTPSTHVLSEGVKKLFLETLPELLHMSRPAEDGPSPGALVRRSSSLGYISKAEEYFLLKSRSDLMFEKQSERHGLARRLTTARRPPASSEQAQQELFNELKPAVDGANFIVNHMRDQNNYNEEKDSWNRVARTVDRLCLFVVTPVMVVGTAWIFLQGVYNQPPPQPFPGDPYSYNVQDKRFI

| Structure (SMILES) | pKd of Antibody for ARM Compound of Formula (I) [1] | Emax at 100 µM [3] | IC50 [3] | Emax at 10 µM [3] | EC50 [2] | ADCC Reporter Assay pEC50 [2] |
| --- | --- | --- | --- | --- | --- | --- |
| CC(C)N(C)[C@@H]1CC[C@H](N2CC[C@H](Nc3ncnc4ccc(C(F)(F)F)cc34)C2=O)[C@H](NC(=O)[C@H]2CC[C@@H](NC(=O)CCCO[C@H]3CC[C@H](OCCNC(=O)[C@H]4CC(=O)N(C)[C@@H]4c4cccnc4)CC3)CC2)C1 [Example 5] | 9.19 | 40.5% | > 100000 nM | – | 0.316 nM and 0.386 nM | – |
| CC(C)N(C)[C@@H]1CC[C@H](N2CC[C@H](Nc3ncnc4ccc(C(F)(F)F)cc34)C2=O)[C@H](NC(=O)CCOCCNC(=O)CCCO[C@H]2CC[C@H](OCCNC(=O)[C@H]3CC(=O)N(C)[C@@H]3c3cccnc3)CC2)C1 [Example 7] | 9.2515 | 95% | 13700 nM | – | 0.182 nM | – |
| CC(C)N(C)[C@@H]1CC[C@H](N2CC[C@H](Nc3ncnc4ccc(C(F)(F)F)cc34)C2=O)[C@H](NC(=O)[C@H]2CC[C@@H](NC(=O)CCOCCOCCNC(=O)CCNC(=O)[C@H]3CC(=O)N(C)[C@@H]3c3cccnc3)CC2)C1 [Example 16, (2S,3S)-N-(3-((2-(2-(3-(((1S,4s)-4-(((1R,2S,5R)-5-(Isopropyl(methyl)amino)-2-((S)-2-oxo-3-((6-(trifluoromethyl)quinazolin-4-yl)amino)pyrrolidin-1-yl)cyclohexyl)carbamoyl)cyclohexyl)amino)-3-oxopropoxy)ethoxy)ethyl)amino)-3-oxopropyl)-1-methyl-5-oxo-2-(pyridin-3-yl)pyrrolidine-3-carboxamide] | 9.287 | 47.8% | > 100000 nM | – | 0.925 nM and 0.119 nM | – |
| CC(C)N(C)[C@@H]1CC[C@H](N2CC[C@H](Nc3ncnc4ccc(C(F)(F)F)cc34)C2=O)[C@H](NC(=O)[C@H]2CC[C@@H](NC(=O)CCCC(=O)NCCCOCCCNC(=O)[C@H]3CC(=O)N(C)[C@@H]3c3cccnc3)CC2)C1 [Example 18, N^1-((1S,4s)-4-(((1R,2S,5R)-5-(Isopropyl(methyl)amino)-2-((S)-2-oxo-3-((6-(trifluoromethyl)quinazolin-4-yl)amino)pyrrolidin-1-yl)cyclohexyl)carbamoyl)cyclohexyl)-N^5-(3-(3-((2S,3S)-1-methyl-5-oxo-2-(pyridin-3-yl)pyrrolidine-3-carboxamido)propoxy)propyl)glutaramide] | 9.0895 | 44.9% | > 100000 nM | – | 0.675 nM and 0.132 nM | – |
| CC(C)N(C)[C@@H]1CC[C@H](N2CC[C@H](Nc3ncnc4ccc(C(F)(F)F)cc34)C2=O)[C@H](NC(=O)[C@H]2CC[C@H](NC(=O)CCCC(=O)NCCCOCCCNC(=O)[C@H]3CC(=O)N(C)[C@@H]3c3cccnc3)CC2)C1 [Example 19] | 9.19 | 34.2% | > 100000 nM | – | 4.9 nM | – |
| CC(C)N(C)[C@@H]1CC[C@H](N2CC[C@H](Nc3ncnc4ccc(C(F)(F)F)cc34)C2=O)[C@H](NC(=O)C2CCC(NC(=O)CCOCCNC(=O)CCOCCNC(=O)[C@H]3CC(=O)N(C)[C@@H]3c3cccnc3)CC2)C1 (stereo partly shown) [Example 48] | 8.975 | 77% | 31800 nM | – | – | 9.159 and 9.168 |
| CC(C)N(C)[C@@H]1CC[C@H](N2CC[C@H](Nc3ncnc4ccc(C(F)(F)F)cc34)C2=O)[C@H](NC(=O)[C@H]2C[C@@H](NC(=O)CCOCCOCCNC(=O)CCNC(=O)[C@H]3CC(=O)N(C)[C@@H]3c3cccnc3)C2)C1 [Example 49, (2S,3S)-N-(3-((2-(2-(3-(((1S,3s)-3-(((1R,2S,5R)-5-(Isopropyl(methyl)amino)-2-((S)-2-oxo-3-((6-(trifluoromethyl)quinazolin-4-yl)amino)pyrrolidin-1-yl)cyclohexyl)carbamoyl)cyclobutyl)amino)-3-oxopropoxy)ethoxy)ethyl)amino)-3-oxopropyl)-1-methyl-5-oxo-2-(pyridin-3-yl)pyrrolidine-3-carboxamide] | 9.191 | 56.7% | 80300 nM | – | 0.845 nM and 0.303 nM | – |

Second part, led by results:

| pKd of Antibody for ARM Compound of Formula (I) [1] | Emax at 100 µM [3] | IC50 [3] | Emax at 10 µM [3] | Structure (SMILES) | EC50 [2] | ADCC Reporter Assay pEC50 [2] |
| --- | --- | --- | --- | --- | --- | --- |
| 9.2166 | 50.5% | 85200 nM | – | CN1C(=O)C[C@H](C(=O)NCCOCCOCCOCCC(=O)N[C@H]2CC[C@@H](C(=O)N[C@@H]3C[C@H](NC(C)(C)C)CC[C@@H]3N3CC[C@H](Nc4ncnc5ccc(C(F)(F)F)cc45)C3=O)CC2)[C@H]1c1cccnc1 [Example 23, (2S,3S)-N-(2-(2-(2-(3-(((1S,4s)-4-(((1R,2S,5R)-5-(tert-Butylamino)-2-((S)-2-oxo-3-((6-(trifluoromethyl)quinazolin-4-yl)amino)pyrrolidin-1-yl)cyclohexyl)carbamoyl)cyclohexyl)amino)-3-oxopropoxy)ethoxy)ethoxy)ethyl)-1-methyl-5-oxo-2-(pyridin-3-yl)pyrrolidine-3-carboxamide] | 1.12 nM and 2.69 nM and 0.566 nM | – |
| 9.4425 | 59.5% | 85300 nM | – | CC(C)N(C)[C@@H]1CC[C@H](N2CC[C@H](Nc3ncnc4ccc(C(F)(F)F)cc34)C2=O)[C@H](NC(=O)[C@H]2C[C@@H](NC(=O)CCOCCOCCOCCNC(=O)[C@H]3CC(=O)N(C)[C@@H]3c3cccnc3)C2)C1 [Example 24] | 1.46 nM and 0.358 nM | – |
| 9.273 | 69.9% | 40900 nM | – | CC(C)N(C)[C@@H]1CC[C@H](N2CC[C@H](Nc3ncnc4ccc(C(F)(F)F)cc34)C2=O)[C@H](NC(=O)[C@H]2CC[C@@H](NC(=O)CCOCCOCCOCCNC(=O)[C@H]3CC(=O)N(C)[C@@H]3c3cccnc3)CC2)C1 [Example 28] | 0.251 nM | – |
| 9.3155 | – | > 10000 nM | 5.4% | CC(C)N(C)[C@@H]1CC[C@H](N2CC[C@H](Nc3ncnc4ccc(C(F)(F)F)cc34)C2=O)[C@H](NC(=O)[C@H]2CC[C@H](NC(=O)CCOCCOCCOCCNC(=O)[C@H]3CC(=O)N(C)[C@@H]3c3cccnc3)CC2)C1 [Example 30] | 7.53 nM | – |
| 9.933 | 79.2% | 28500 nM | – | CCN1C(=O)C[C@H](C(=O)NCCOCCOCCOCCC(=O)N[C@H]2CC[C@@H](C(=O)N[C@@H]3C[C@H](N(C)C(C)C)CC[C@@H]3N3CC[C@H](Nc4ncnc5ccc(C(F)(F)F)cc45)C3=O)CC2)[C@H]1c1cccnc1 [Example 34] | 1 nM | – |
| 9.785 | 52.3% | 89200 nM | – | CCN1C(=O)C[C@H](C(=O)NCCOCCOCCOCCC(=O)N[C@H]2CC[C@@H](C(=O)N[C@@H]3C[C@H](NC(C)(C)C)CC[C@@H]3N3CC[C@H](Nc4ncnc5ccc(C(F)(F)F)cc45)C3=O)CC2)[C@H]1c1cccnc1 [Example 35] | 2.51 nM | – |
| 9.4635 | – | > 10000 nM | 18.2% | CC(C)N(C)[C@@H]1CC[C@H](N2CC[C@H](Nc3ncnc4ccc(C(F)(F)F)cc34)C2=O)[C@H](NC(=O)[C@H]2CC[C@@H](CC(=O)CCCOC[C@H]3CC[C@H](COCCNC(=O)[C@H]4CC(=O)N(C)[C@@H]4c4cccnc4)CC3)CC2)C1 [Example 60] | – | – |
| 9.146 | – | > 10000 nM | 23% | CC(C)N(C)[C@@H]1CC[C@H](N2CC[C@H](Nc3ncnc4ccc(C(F)(F)F)cc34)C2=O)[C@H](NC(=O)[C@H]2CC[C@@H](NC(=O)CCCOCCCCOCCNC(=O)[C@H]3CC(=O)N(C)[C@@H]3c3cccnc3)CC2)C1 [Example 122] | – | – |
